Source: publication PMC9739398, “Substrate Specificity of GSDA Revealed by Cocrystal Structures and Binding Studies” (International Journal of Molecular Sciences, 2022)
One block for each molecule: values may come before it.

Assays:
AtGSDA [1] = molecular target: T1, AtGSDA (Arabidopsis thaliana, UniProt Q94BU8); experiment: thermal shift (dye); deamination by mass spectrometry; assay type: biochemical; conditions: printed as nearly 2; turned over to 2'-O-methylxanthosine
T1 construct: gene GSDA; SF form, Ser29-Tyr185, N-terminal 6xHis tag (pET-28a), recombinant, homodimer, zinc enzyme; full-length in pET-21b also made

AtGSDA [2] = molecular target: T1, AtGSDA; experiment: thermal shift; deamination by mass spectrometry; assay type: biochemical; conditions: weak substrate; crystal soak reached product stage
AtGSDA [3] = molecular target: T1, AtGSDA; experiment: crystal structure; thermal shift; assay type: binding; conditions: active site, described as competitive inhibitor
GDA = molecular target: T2, GDA (Escherichia coli, UniProt P76641); experiment: deamination by mass spectrometry; thermal shift; assay type: biochemical; conditions: enzyme:substrate 1:100; 50 mM sodium bicarbonate, neutral
T2 construct: gene guaD; recombinant, purified as in a cited protocol
T2 sequence (P76641 1-439): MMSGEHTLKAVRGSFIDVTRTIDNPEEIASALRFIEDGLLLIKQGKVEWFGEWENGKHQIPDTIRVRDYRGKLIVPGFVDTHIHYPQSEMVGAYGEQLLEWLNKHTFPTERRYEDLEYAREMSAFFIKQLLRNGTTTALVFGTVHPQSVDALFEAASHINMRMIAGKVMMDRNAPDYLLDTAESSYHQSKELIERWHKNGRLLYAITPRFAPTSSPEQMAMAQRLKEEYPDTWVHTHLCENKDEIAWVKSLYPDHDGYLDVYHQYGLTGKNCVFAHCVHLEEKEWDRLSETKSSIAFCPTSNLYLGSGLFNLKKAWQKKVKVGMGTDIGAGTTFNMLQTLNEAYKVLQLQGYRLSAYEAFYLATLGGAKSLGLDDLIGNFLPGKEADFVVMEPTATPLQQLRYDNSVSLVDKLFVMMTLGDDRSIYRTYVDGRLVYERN

AtGSDA [4] = molecular target: T3, AtGSDA (Arabidopsis thaliana, UniProt Q94BU8, E82Q); experiment: thermal shift; assay type: binding; conditions: catalytically impaired
T3 construct: gene GSDA; SF form, Ser29-Tyr185, N-terminal 6xHis tag (pET-28a), recombinant, homodimer, zinc enzyme; full-length in pET-21b also made

AtGSDA [5] = molecular target: T4, AtGSDA (Arabidopsis thaliana, UniProt Q94BU8, Y185K); experiment: thermal shift; assay type: binding
T4 construct: gene GSDA; SF form, Ser29-Tyr185, N-terminal 6xHis tag (pET-28a), recombinant, homodimer, zinc enzyme; full-length in pET-21b also made

AtGSDA [6] = molecular target: T5, AtGSDA (Arabidopsis thaliana, UniProt Q94BU8, Y185F); experiment: crystal structure; thermal shift; assay type: binding; conditions: one ligand per dimer, substrate form
T5 construct: gene GSDA; SF form, Ser29-Tyr185, N-terminal 6xHis tag (pET-28a), recombinant, homodimer, zinc enzyme; full-length in pET-21b also made

AtGSDA [7] = molecular target: T6, AtGSDA (Arabidopsis thaliana, UniProt Q94BU8, Y185E); experiment: thermal shift; assay type: binding
T6 construct: gene GSDA; SF form, Ser29-Tyr185, N-terminal 6xHis tag (pET-28a), recombinant, homodimer, zinc enzyme; full-length in pET-21b also made

AtGSDA [8] = molecular target: T1, AtGSDA; experiment: thermal shift (dye); crystal structure (product formed from soaked guanosine); assay type: binding; conditions: printed as nearly 2; zinc enzyme; active site
AtGSDA [9] = molecular target: T5, AtGSDA; experiment: thermal shift; assay type: binding

T1 sequence (Q94BU8 29-185): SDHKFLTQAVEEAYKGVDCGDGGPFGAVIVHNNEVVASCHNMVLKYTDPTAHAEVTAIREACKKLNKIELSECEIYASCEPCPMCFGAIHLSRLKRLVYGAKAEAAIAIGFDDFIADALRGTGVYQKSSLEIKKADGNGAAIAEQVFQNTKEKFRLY
T6 sequence (Q94BU8 29-185 Y185E): as the sequence (Q94BU8 29-185) above, with Y157E counted along it
T5 sequence (Q94BU8 29-185 Y185F): as the sequence (Q94BU8 29-185) above, with Y157F counted along it
T3 sequence (Q94BU8 29-185 E82Q): as the sequence (Q94BU8 29-185) above, with E54Q counted along it
T4 sequence (Q94BU8 29-185 Y185K): as the sequence (Q94BU8 29-185) above, with Y157K counted along it

ΔTm (AtGSDA [1]): ~ 2 °C
SMILES: CO[C@@H]1[C@H](O)[C@@H](CO)O[C@H]1n1cnc2c(=O)[nH]c(N)nc21 [compound 1, 2′-O-methylguanosine]

SMILES: CNc1nc2c(ncn2[C@@H]2O[C@H](CO)[C@@H](O)[C@H]2O)c(=O)[nH]1 [compound 2, N^2-methylguanosine]
ΔTm (AtGSDA [2]): the inhibitors Ado/isoG or the weak substrate N^2-mG normally lacked one or two functional groups

SMILES: Nc1ncnc2c1ncn2[C@@H]1O[C@H](CO)[C@@H](O)[C@H]1O [compound 3, adenosine]
ΔTm (AtGSDA [3]): The ligand adenosine (Ado) maintained its interactions with Ala81 and Asn69 via N6

SMILES: O=c1[nH]cnc2c1ncn2[C@@H]1O[C@H](CO)[C@@H](O)[C@H]1O [compound 4, inosine]
ΔTm (AtGSDA [3]): The binding position was almost unchanged when compared to Gua bound by AtGSDA

SMILES: Nc1nc(=O)[nH]c2c1ncn2[C@@H]1O[C@H](CO)[C@@H](O)[C@H]1O [compound 5, isoguanosine]
ΔTm (AtGSDA [3]; 2-keto group ligates zinc): its binding mode was similar to that of Xan (Figure 3c, PDB 7DM6)

SMILES: Nc1nc2[nH]cnc2c(=O)[nH]1 [guanine]
ΔTm (GDA): GDA showed excellent deamination capability by converting almost all of the guanine substrate

SMILES: Nc1nc2c(ncn2[C@@H]2O[C@H](CO)[C@@H](O)[C@H]2O)c(=O)[nH]1 [guanosine]
ΔTm (AtGSDA [4]): the Y185K and E82Q mutants showed differentially reduced affinities
ΔTm (AtGSDA [5]): the Y185K and E82Q mutants showed differentially reduced affinities
ΔTm (AtGSDA [6]): the Y185F-Gua structure indicated that only one Gua molecule was bound
ΔTm (AtGSDA [7]): WT and Y185F/E showed similar binding affinities toward the ligands

ΔTm (AtGSDA [8]): ~ 2 °C
SMILES: O=c1[nH]c(=O)c2ncn([C@@H]3O[C@H](CO)[C@@H](O)[C@H]3O)c2[nH]1 [xanthosine]
ΔTm (AtGSDA [7]): WT and Y185F/E showed similar binding affinities toward the ligands
ΔTm (AtGSDA [9]): WT and Y185F/E showed similar binding affinities toward the ligands
